# Test results as given in article PMC8047743 (ACS Omega, 2021).
# Assays:
# HepG2 cells = experiment: In vitro cytotoxicity on HepG2 cells; format: cell-based; conditions: 50 μM, 24 h, MTT
# [1] = cited from earlier work
structure (smiles),measurement,setting,value
"Nc1c2c(nc3ccccc13)CCCC2 [tacrine, Tacrine]",inhibitory rate (%) on HepG2 cells,HepG2 cells,49.91 ± 0.61%
same,patients with increased serum alanine aminotransferase levels,[1],about 30%
